Experimental data reported in ChEMBL document CHEMBL1201862, “PubChem BioAssay data set” (2004).
Calls of active or inactive are those of the source.

Assays:
[1] = target: T1, Dual specificity protein phosphatase 6 (Rattus norvegicus, UniProt Q64346); assay: inhibition of rat DUSP6 enzyme activity – biochemical, in vitro, primary screen (AID 425)
T1 sequence (Q64346 whole entry): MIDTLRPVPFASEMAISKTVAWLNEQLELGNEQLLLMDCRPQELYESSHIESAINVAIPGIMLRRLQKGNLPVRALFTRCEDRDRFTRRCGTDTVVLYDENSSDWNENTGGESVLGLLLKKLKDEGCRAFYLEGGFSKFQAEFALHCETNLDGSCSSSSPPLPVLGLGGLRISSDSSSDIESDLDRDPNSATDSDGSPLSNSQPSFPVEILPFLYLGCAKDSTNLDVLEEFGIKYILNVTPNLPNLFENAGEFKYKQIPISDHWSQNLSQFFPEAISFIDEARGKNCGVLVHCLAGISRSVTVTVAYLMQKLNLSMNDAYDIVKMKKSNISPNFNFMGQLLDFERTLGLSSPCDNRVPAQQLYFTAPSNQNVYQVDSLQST

[2] = target: T2, Apoptotic protease-activating factor 1 (Homo sapiens, UniProt O14727); format: functional
T2 sequence (O14727 whole entry): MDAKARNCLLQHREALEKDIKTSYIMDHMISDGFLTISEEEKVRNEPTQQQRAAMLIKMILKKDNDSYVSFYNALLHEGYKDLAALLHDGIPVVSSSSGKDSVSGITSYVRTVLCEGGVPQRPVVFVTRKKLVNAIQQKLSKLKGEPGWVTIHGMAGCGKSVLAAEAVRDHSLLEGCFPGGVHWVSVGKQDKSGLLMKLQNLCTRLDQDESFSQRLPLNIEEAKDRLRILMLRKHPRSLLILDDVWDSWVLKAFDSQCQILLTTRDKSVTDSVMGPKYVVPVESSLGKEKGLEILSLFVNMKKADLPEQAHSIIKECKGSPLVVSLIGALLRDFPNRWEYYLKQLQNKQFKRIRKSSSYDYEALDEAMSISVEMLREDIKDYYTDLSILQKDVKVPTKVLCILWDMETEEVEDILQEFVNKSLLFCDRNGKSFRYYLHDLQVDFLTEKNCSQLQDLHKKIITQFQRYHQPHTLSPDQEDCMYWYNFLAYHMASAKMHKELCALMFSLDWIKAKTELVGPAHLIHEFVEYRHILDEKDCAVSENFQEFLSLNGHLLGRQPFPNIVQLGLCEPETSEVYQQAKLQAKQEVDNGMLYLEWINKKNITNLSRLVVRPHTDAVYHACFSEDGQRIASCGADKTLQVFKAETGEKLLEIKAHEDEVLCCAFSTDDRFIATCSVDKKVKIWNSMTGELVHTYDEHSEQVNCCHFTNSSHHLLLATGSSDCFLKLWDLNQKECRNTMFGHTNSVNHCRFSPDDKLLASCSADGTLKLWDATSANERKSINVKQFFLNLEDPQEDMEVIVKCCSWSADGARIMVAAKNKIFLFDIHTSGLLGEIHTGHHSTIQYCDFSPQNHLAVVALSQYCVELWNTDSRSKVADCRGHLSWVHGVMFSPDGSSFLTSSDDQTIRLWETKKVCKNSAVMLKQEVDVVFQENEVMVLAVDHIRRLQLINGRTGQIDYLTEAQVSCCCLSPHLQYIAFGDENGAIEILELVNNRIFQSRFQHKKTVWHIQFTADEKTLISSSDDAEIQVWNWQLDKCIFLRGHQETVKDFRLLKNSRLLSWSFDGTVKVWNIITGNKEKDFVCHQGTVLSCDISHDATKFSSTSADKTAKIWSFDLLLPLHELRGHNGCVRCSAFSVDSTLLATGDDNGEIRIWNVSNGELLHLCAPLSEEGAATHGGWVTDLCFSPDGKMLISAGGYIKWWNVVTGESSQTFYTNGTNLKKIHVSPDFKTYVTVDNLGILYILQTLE

Caspase-6 = target: T3, Caspase-6 (Homo sapiens, UniProt P55212); assay: inhibition of CASP6 peptide cleavage – biochemical, VEID-R110 fluorescence, cherry-pick, dose response (AID 720632)
T3 sequence (P55212 whole entry): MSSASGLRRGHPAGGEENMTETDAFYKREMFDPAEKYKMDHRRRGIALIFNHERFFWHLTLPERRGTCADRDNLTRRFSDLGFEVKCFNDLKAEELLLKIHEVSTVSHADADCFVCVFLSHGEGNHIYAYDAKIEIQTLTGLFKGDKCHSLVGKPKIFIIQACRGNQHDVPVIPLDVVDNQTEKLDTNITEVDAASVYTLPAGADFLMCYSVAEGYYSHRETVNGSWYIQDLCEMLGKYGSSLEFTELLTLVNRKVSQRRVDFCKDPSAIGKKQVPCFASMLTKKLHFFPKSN

[3] = target: Dual specificity protein phosphatase 3 (Homo sapiens, UniProt P51452); assay: SAR VHR1 Fluorescent Assay for In Vitro dose response studies. [Related pubchem assays (depositor defined):AID1654, AID1661, AID1878, AID1992, AID2004, AID2070, AID2085]; format: functional
Dual specificity protein phosphatase 3, sequence (P51452 whole entry): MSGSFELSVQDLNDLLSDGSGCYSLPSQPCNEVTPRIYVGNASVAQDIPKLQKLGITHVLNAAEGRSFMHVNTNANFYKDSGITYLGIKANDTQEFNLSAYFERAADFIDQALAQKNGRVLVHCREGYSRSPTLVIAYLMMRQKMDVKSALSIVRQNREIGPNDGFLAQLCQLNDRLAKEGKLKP

SMILES	IC50 [1]	IC50 [2]	AC50 (Caspase-6)	IC50 [3]
C=CCn1c(NC(=O)c2ccccc2Cl)c(C#N)c2nc3ccccc3nc21	> 100 µM (not active)	13.7 µM (active)	10.4 µM (active)	–
CCOC(=O)c1sc2nc3c(SCC(=O)O)cc(C(=O)c4ccccc4O)cn3c(=O)c2c1C	103 µM (not active)	–	–	382 nM (active)
CCOC(=O)c1ccc(Nc2cc3ccccc3c(O)n2)cc1	–	8.78 µM (active)	15.7 µM (active)	–
